The results in this text go back to US20030105048A1, “Oligobenzimidazole derivatives and their use as DNA transfecting agents” (priority 1999, published 2003).

The test system of one experiment is HeLa cells. In words: In vitro transfection of plasmid pXL3031 (luciferase expression) in the presence and absence of serum. It counts as cell-based. Particulars: 48 hours after transfection. As for the experimental part: The plasmid used The DNA used is the plasmid pXL3031 (see FIG. 7) as a solution in a mixture of 5% dextrose and 10 mM sodium chloride at a concentration of 0.5 mg/ml or 1.0 mg/ml. This plasmid contains the luc gene encoding luciferase under the control of the cytomegalovirus P/E CMV promoter. Its size is 3671 bp. The plasmid pXL3031 was purified according to the methods described in patent application WO 97/35002.
The nucleic acid solutions are diluted to 20 μg/ml in physiological saline (0.15 M sodium chloride).
The oligobenzimidazole derivative (2) according to the invention is dissolved in water to a concentration ranging from 40 to 160 μmol and mixed, volume for volume, with the DNA solution. The final saline concentration is 75 mmol.
HeLa cells are cultured under suitable conditions on 24-well microplates (2 cm^2/well) and are transfected while they are in the exponential growth phase and at 50-70% of confluence.
The cells are washed with twice 0.5 cm^3 of medium free of seric proteins and are regrown either in serum-free medium (transfection in the absence of serum) or in whole medium (transfection in the presence of serum). 0.05 cm^3 of cytofecting mixture (0.5 μg of DNA/well) are added to the cells (3 wells/DNA-vector condition). When the cells are transfected in the absence of serum, the growth medium is supplemented, 2 hours after the transfection, with a suitable amount of serum.
The transfecting efficacy is evaluated 48 hours after transfection by measuring the expression of luciferase according to the recommendations given for using the Promega kit (“Luciferase Assay System”). The toxicity of the cytofecting mixtures is estimated by measuring the protein concentrations in cell lysates.
The in vitro luciferase activity results relative to the proteins expressed in RLU/5 μl/10 s/μg of protein (written more simply as RLU/μg of protein, “RLU” meaning “relative light unit”) are given in the table below: […]

The subject of a further experiment is DNA plasmid. In words: Agarose gel electrophoresis of DNA plasmid complexed with derivative or cationic lipid. It counts as binding. The note with it: increasing amounts per μg of DNA; revealed with ethidium bromide. The procedure:
For this, an agarose gel of a DNA plasmid mixed with increasing amounts of derivative (1) or (2) according to the invention was prepared (see FIG. 4). […] Two bands could thus be observed by virtue of the specific spectral absorption properties of the derivatives according to the present invention:
It is observed that the DNA migrates in an identical manner to the naked DNA, irrespective of the concentration of derivative 20 according to the invention.

The next experiment deals with mouse muscles. The experiment is described as follows: In vivo intramuscular transfection of plasmid pXL3031 (luciferase expression) with or without electrotransfer. Details: species or system C57B16 mice. Particulars: 4 μg of DNA/muscle, 7 days. As for the experimental part:
The plasmid used is the same as the one described above for Example 5 (pXL3031). Similarly, the cytofecting solutions are prepared in the same way as in Example 5.
25 μl of solutions of derivative (1)/DNA complexes are injected intramuscularly to C57B16 mice, at a rate of 4 μg of DNA/mouse muscle.
The transfection efficacy is evaluated 7 days 5 after transfection by measuring the expression of luciferase according to the recommendations given for using the Promega kit (Luciferase Assay System). The muscles are ground in 1.5 ml of lysis buffer (with protease inhibitors). After assaying the luciferase activity on 10 μl, the results are expressed as RLU/10 μl/10 sec.
The in vivo luciferase activity results in mouse muscles, expressed in RLU/10 μl/10 sec, are collated in the table below: […]

Turning to `CCCCCCCCCCCCNC(=O)Oc1ccc(-c2nc3ccc(-c4nc5ccc(N6CCN(C)CC6)cc5[nH]4)cc3[nH]2)cc1` [Derivative (2), 4-[6-(4-methyl-1-piperazinyl)-1H,3′H-[2,5′]bisbenzimidazol-2′-yl]-1-dodecylcarbamoyloxy phenyl], the “in vitro luciferase activity” value with HeLa cells (4 nmol/μg of DNA, + serum) is on record as 9.8 E+02 RLU/μg of protein; with HeLa cells (4 nmol/μg of DNA, absence of serum), 1.3 E+03 RLU/μg of protein; in the experiment with HeLa cells (8 nmol/μg of DNA, + serum), 4.6 E+02 RLU/μg of protein; with HeLa cells (8 nmol/μg of DNA, absence of serum) it was 1.7 E+03 RLU/μg of protein; with HeLa cells (10 nmol/μg of DNA, + serum), 1.1 E+02 RLU/μg of protein; with HeLa cells (10 nmol/μg of DNA, absence of serum), 1.7 E+03 RLU/μg of protein. For the same molecule, the “electrophoretic mobility of complexes with DNA on agarose gel” value (from here on “electrophoretic mobility of complexes”) in the experiment with DNA plasmid is recorded as “same electrophoretic mobility properties as the naked DNA”.
Turning to `CCCCCCCCCCCCCCN(CCCCCCCCCCCCCC)C(=O)CNC(=O)CNCCN(CCN)CCN` [cationic lipid, reference compound], the “electrophoretic mobility of complexes” value in the experiment with DNA plasmid is reported as “varies with the amount of cationic lipid present with the DNA”.
Take `CCCCCCCCCCCCCCCCCCNC(=O)Oc1ccc(-c2nc3ccc(-c4nc5ccc(N6CCN(C)CC6)cc5[nH]4)cc3[nH]2)cc1` [Derivative (1), 4-[6-(4-methyl-1-piperazinyl)-1H,3′H-[2,5′]bisbenzimidazol-2′-yl]-1-octadecylcarbamoyloxy phenyl]: the “in vivo luciferase activity in mouse muscles” value in the experiment with mouse muscles (0.2 nmol/μg of DNA, with electrotransfer) is given as 1.14 E+07 RLU/10 μl/10 sec; with mouse muscles (0.2 nmol/μg of DNA, without electrotransfer), 3.45 E+04 RLU/10 μl/10 sec; in the experiment on mouse muscles (0.5 nmol/μg of DNA, with electrotransfer) it was 2.19 E+07 RLU/10 μl/10 sec; in the experiment on mouse muscles (0.5 nmol/μg of DNA, without electrotransfer) it was 1.67 E+04 RLU/10 μl/10 sec; with mouse muscles (1 nmol/μg of DNA, with electrotransfer), 1.82 E+07 RLU/10 μl/10 sec; in the experiment on mouse muscles (1 nmol/μg of DNA, without electrotransfer), 1.06 E+04 RLU/10 μl/10 sec. In the experiment with DNA plasmid, the “electrophoretic mobility of complexes” value is “same electrophoretic mobility properties as the naked DNA”.
